Data: patent US7632783B2 (priority 2004, dated 2009)

Assays:
[1] = tested on: rice blast (Pyricularia oryzae); assay type: in vivo; details: potted rice (variety Karakaze), spraying liquid 300 ppm after spore inoculation, observed 7 days after inoculation, levels 0 to 3
[2] = tested on: gray mold (Botrytis cinerea); assay: Tomato gray mold control test (preventive effects); assay type: in vivo; details: potted tomato (giant Fukuju variety), spraying liquid 300 ppm before spore inoculation, investigated 2 days after inoculation, levels 0 to 3
Experimental: Bulk drug was dissolved in a mixed solution of dimethylsulfoxide and methanol (volume ratio: 7/3), and spraying liquids containing 300 ppm of compounds of the present invention were uniformly sprayed onto potted test plants (tomato: giant Fukuju variety) in the second to third leaf stage. […], a suspension of pathogen spores were inoculated by spraying onto the pots in an inoculation room at a room temperature of 20 to 23° C. to promote the onset of disease. The degree of disease onset was investigated 2 days after inoculation. The test was carried out in duplicate.
Furthermore, the degree of disease onset was evaluated to one of four levels from 0 to 3 according to the criteria below by macroscopically observing the degree of disease onset of the test plants.
1: Degree of disease onset less than 40% of the untreated area
2: Degree of disease onset 40% to less than 80% of the untreated area
3: Degree of disease onset 80% or more

Row | Structure (SMILES) | degree of disease onset [1] | degree of disease onset [2]
1 | CC1(C)Cc2c(F)cccc2C(c2cnc3ccccc3c2)=N1.O=C(O)/C=C/C(=O)O [Example 109, 3-(5-fluoro-3,3-dimethyl-3,4-dihydroisoquinolin-1-yl)quinoline fumarate] | 0 | 0
2 | CC1(C)N=C(c2cnc3ccccc3c2)c2cccc(F)c2C1(C)C [Example 114, 3-(5-fluoro-3,3,4,4-tetramethyl-3,4-dihydroisoquinolin-1-yl)quinoline] | 0 | 0
3 | CC1(C)N=C(c2cnc3ccccc3c2)c2cccc(F)c2C1(C)C.Cl [Example 156, 3-(5-fluoro-3,3,4,4-tetramethyl-3,4-dihydroisoquinolin-1-yl)quinoline hydrochloride] | 0 | 0
4 | CC1(C)N=C(c2cnc3ccccc3c2)c2cccc(F)c2C1(C)C.O=[N+]([O-])O [Example 158, 3-(5-fluoro-3,3,4,4-tetramethyl-3,4-dihydroisoquinolin-1-yl)quinoline nitrate] | 0 | 0
5 | CC1(C)N=C(c2cnc3ccc(F)cc3c2)c2cccc(F)c2C1(C)C [Example 163, 3-(5-fluoro-3,3,4,4-tetramethyl-3,4-dihydroisoquinolin-1-yl)-6-fluoroquinoline] | 0 | 0
6 | CC1(C)N=C(c2cnc3c(F)cccc3c2)c2cccc(F)c2C1(C)C [Example 164, 3-(5-fluoro-3,3,4,4-tetramethyl-3,4-dihydroisoquinolin-1-yl)-8-fluoroquinoline] | 0 | 0
7 | Cc1cccc2cc(C3=NC(C)(C)C(C)(C)c4c(F)cccc43)cnc12 [Example 165, 3-(5-fluoro-3,3,4,4-tetramethyl-3,4-dihydroisoquinolin-1-yl)-8-methylquinoline] | 0 | 0
8 | CC1(C)N=C(c2cnc3ccccc3c2)c2cccc(F)c2C1F (centres unmarked) [Example 174, 3-(4,5-difluoro-3,3-dimethyl-3,4-dihydroisoquinolin-1-yl)quinoline] | 0 | 0
9 | CC1(C)N=C(c2cnc3ccccc3c2)c2ccccc2C1(F)F [Example 177, 3-(4,4-difluoro-3,3-dimethyl-3,4-dihydroisoquinolin-1-yl)quinoline] | 0 | 0
10 | CC1(C)N=C(c2cnc3ccccc3c2)c2cccc(F)c2C1(F)F [Example 178, 3-(4,4,5-trifluoro-3,3-dimethyl-3,4-dihydroisoquinolin-1-yl)quinoline] | 0 | 0
11 | CC1(C)c2c(F)cccc2C2(c3cnc4ccccc4c3)ON2C1(C)C (centres unmarked) [Example 193, 5-fluoro-3,3,4,4-tetramethyl-8b-quinolin-3-yl-4,8b-dihydro-3H-oxazileno[3,2-a]isoquinoline] | 0 | 0
12 | CC1(C)c2ccccc2C2(c3cnc4ccccc4c3)ON2C1(C)C (centres unmarked) [Example 196, 3,3,4,4-tetramethyl-8b-quinolin-3-yl-4,8b-dihydro-3H-oxazileno[3,2-a]isoquinoline] | 0 | 0
13 | CC1(C)Cc2c(F)cccc2C2(c3cnc4ccccc4c3)ON12 (centres unmarked) [Example 197, 5-fluoro-3,3-dimethyl-8b-quinolin-3-yl-4,8b-dihydro-3H-oxazileno[3,2-a]isoquinoline] | 0 | 0
